Laboratory results taken from patent US10669238B2, “Irreversible bruton's tyrosine kinase inhibitor” (HEFEI INSTITUTES OF PHYSICAL SCIENCE, CHINESE ACADEMY OF …, priority 2016, dated 2020).

Tested on: phosphorylation of tyrosine Y223 on Btk
Assay: Effects on BTK Y223 and downstream signaling pathway proteins in cells (anti-IgM stimulation)
Assay type: cell-based, human
Details: Compound 1 in MEC-2, Pfeiffer, Ramos, TMD8, U2932; Compound 35 in MEC-1; 4 hours, then anti-IgM 10 mins
Description: By assaying a number of cellular biochemical and functional endpoints, the properties of the compounds were further characterized. […] In this experiment, PC132765 (purchased from Shanghai Haoyuan Chemexpress Co., Ltd.), CGI11746 (purchased from Shanghai Haoyuan Chemexpress Co., Ltd.) and Compound 6 (prepared herein) were used as control (see FIGS. 2a-2f).
Effects of the compounds on phosphorylation of BTKY223, BTKY551, PLCγ1Y783, PLCγ2Y759, PLCγ2Y1217, P—NF-κB P65, P-AKT Ser473, Erk Thr202/Tyr204 and the like were determined (FIGS. 2a-2f).

C=CC(=O)Nc1cc(Nc2cc(-c3cccc(NC(=O)c4ccc(C(C)(C)C)cc4)c3C)cn(C)c2=O)ccc1C(=O)N1CCOCC1 [Compound 1, N-(3-(5-((3-acrylamide-4-(morpholin-4-carbonyl)phenyl)amino)-1-methyl-6-oxo-1,6-dihydropyridin-3-yl)-2-methylphenyl)-4-(tert-butyl)benzamide]
phosphorylation of tyrosine Y223 on Btk: selectively and significantly inhibit phosphorylation of tyrosine Y223 on Btk
